Measurements: US11091478B2 (Fochon Pharmaceuticals, Ltd., priority 2017, dated 2021)

How the values were obtained:
[1] = system: DOHH2 cells; assay: Cell proliferation assay (MTS), DOHH2 cells, 120 h; format: cell-based; settings: Homo sapiens, DOHH-2, 120 h
Outline: (§1)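 Treatment lasts 72 h for RS4;11 and 120 h for DOHH2 cells seeded at 5000 per well in serum-containing RPMI-1640. A 2 h MTS step, halted with 10% SDS, precedes dual-wavelength absorbance reading and IC50 fitting.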

[2] = system: RS4;11 cells; assay: Cell proliferation assay (MTS), RS4;11 cells, 72 h; format: cell-based; settings: Homo sapiens, RS4-11, 72 h
Outline: as §1

IC50 [2] [nM] | Compound | IC50 [1] [nM]
9 | CC1(C)CCC(CN2CCN(c3ccc(C(=O)NS(=O)(=O)c4cc5c(c([N+](=O)[O-])c4)O[C@@H](CN4CCOCC4)CO5)c(Oc4cnc5[nH]ccc5c4)c3)CC2)=C(c2ccc(Cl)cc2)C1 [Example 5-1, (S)-2-((1H-pyrrolo[2,3-b]pyridin-5-yl)oxy)-4-(4-((4′-chloro-5,5-dimethyl-3,4,5,6-tetrahydro-[1,1′-biphenyl]-2-yl)methyl)piperazin-1-yl)-N-((2-(morpholinomethyl)-8-nitro-2,3-dihydrobenzo[b][1,4]dioxin-6-yl)sulfonyl)benzamide] | 17
1 | CN1CCN(C[C@H]2COc3cc(S(=O)(=O)NC(=O)c4ccc(N5CCN(CC6=C(c7ccc(Cl)cc7)CC(C)(C)CC6)CC5)cc4Oc4cnc5[nH]ccc5c4)cc([N+](=O)[O-])c3O2)CC1 [Example 5-2] | 25
4 | CC1(C)CCC(CN2CCN(c3ccc(C(=O)NS(=O)(=O)c4cc5c(c([N+](=O)[O-])c4)O[C@H](CN4CCOCC4)CO5)c(Oc4cnc5[nH]ccc5c4)c3)CC2)=C(c2ccc(Cl)cc2)C1 [Example 5-3, (R)-2-((1H-pyrrolo[2,3-b]pyridin-5-yl)oxy)-4-(4-((4′-chloro-5,5-dimethyl-3,4,5,6-tetrahydro-[1,1′-biphenyl]-2-yl)methyl)piperazin-1-yl)-N-((2-(morpholinomethyl)-8-nitro-2,3-dihydrobenzo[b][1,4]dioxin-6-yl)sulfonyl)benzamide] | 12
34 | CN1CCN(C[C@@H]2COc3cc(S(=O)(=O)NC(=O)c4ccc(N5CCN(CC6=C(c7ccc(Cl)cc7)CC(C)(C)CC6)CC5)cc4Oc4cnc5[nH]ccc5c4)cc([N+](=O)[O-])c3O2)CC1 [Example 5-4] | 13
2 | CC1(C)CCC(CN2CCN(c3ccc(C(=O)NS(=O)(=O)c4cc5c(c([N+](=O)[O-])c4)N[C@H](CN4C[C@@H]6C[C@H]4CO6)CO5)c(-n4ncc5nc6[nH]ccc6cc54)c3)CC2)=C(c2ccc(Cl)cc2)C1 [Example 6-1, N—(((R)-3-(((1S,4S)-2-oxa-5-azabicyclo[2.2.1]heptan-5-yl)methyl)-5-nitro-3,4-dihydro-2H-benzo[b][1,4]oxazin-7-yl)sulfonyl)-4-(4-((4′-chloro-5,5-dimethyl-3,4,5,6-tetrahydro-[1,1′-biphenyl]-2-yl)methyl)piperazin-1-yl)-2-(pyrazolo[4,3-b]pyrrolo[3,2-e]pyridin-1(5H)-yl)benzamide] | 73

Second part, the compound before the results:

Compound | IC50 [2] [nM] | IC50 [1] [nM]
CS(=O)OCC[C@H]1CSc2cc(S(=O)(=O)NC(=O)c3ccc(N4CCN(CC5=C(c6ccc(Cl)cc6)CC(C)(C)CC5)CC4)cc3Oc3cnc4[nH]ccc4c3)cc([N+](=O)[O-])c2N1 (stereo partly drawn) [Example 3-17, 2-((S)-7-(N-(2-((1H-pyrrolo[2,3-b]pyridin-5-yl)oxy)-4-(4-((4′-chloro-5,5-dimethyl-3,4,5,6-tetrahydro-[1,1′-biphenyl]-2-yl)methyl)piperazin-1-yl)benzoyl)sulfamoyl)-5-nitro-3,4-dihydro-2H-benzo[b][1,4]thiazin-3-yl) ethyl methanesulfinate] | 19 | 49
CC1(C)CCC(CN2CCN(c3ccc(C(=O)NS(=O)(=O)c4cc5c(c([N+](=O)[O-])c4)N[C@@H](CCS(C)(=O)=O)CS5)c(Oc4cnc5[nH]ccc5c4)c3)CC2)=C(c2ccc(Cl)cc2)C1 [Example 3-18, (S)-2-((1H-pyrrolo[2,3-b]pyridin-5-yl)oxy)-4-(4-((4′-chloro-5,5-dimethyl-3,4,5,6-tetra-hydro-[1,1′-biphenyl]-2-yl)methyl)piperazin-1-yl)-N-((3-(2-(methylsulfonyl)ethyl)-5-nitro-3,4-dihydro-2H-benzo[b][1,4]thiazin-7-yl)sulfonyl)benzamide] | 20 | 54
CN1CCN(CC[C@H]2CSc3cc(S(=O)(=O)NC(=O)c4ccc(N5CCN(CC6=C(c7ccc(Cl)cc7)CC(C)(C)CC6)CC5)cc4Oc4cnc5[nH]ccc5c4)cc([N+](=O)[O-])c3N2)CC1 [Example 3-19, (S)-2-((1H-pyrrolo[2,3-b]pyridin-5-yl)oxy)-4-(4-((4′-chloro-5,5-dimethyl-3,4,5,6-tetra-hydro-[1,1′-biphenyl]-2-yl)methyl)piperazin-1-yl)-N-((3-(2-(4-methylpiperazin-1-yl)ethyl)-5-nitro-3,4-dihydro-2H-benzo[b][1,4]thiazin-7-yl)sulfonyl)benzamide] | 1 | 6
CC1(C)CCC(CN2CCN(c3ccc(C(=O)NS(=O)(=O)c4cc5c(c([N+](=O)[O-])c4)N[C@@H](CCN4CCOCC4)CS5)c(Oc4cnc5[nH]ccc5c4)c3)CC2)=C(c2ccc(Cl)cc2)C1 [Example 3-20, (S)-2-((1H-pyrrolo[2,3-b]pyridin-5-yl)oxy)-4-(4-((4′-chloro-5,5-dimethyl-3,4,5,6-tetra-hydro-[1,1′-biphenyl]-2-yl)methyl)piperazin-1-yl)-N-((3-(2-morpholinoethyl)-5-nitro-3,4-dihydro-2H-benzo[b][1,4]thiazin-7-yl)sulfonyl)benzamide] | 2 | 9
CN1CCN(C[C@@H]2CNc3cc(S(=O)(=O)NC(=O)c4ccc(N5CCN(CC6=C(c7ccc(Cl)cc7)CC(C)(C)CC6)CC5)cc4Oc4cnc5[nH]ccc5c4)cc([N+](=O)[O-])c3N2)CC1 [Example 4-1, (S)-2-((1H-pyrrolo[2,3-b]pyridin-5-yl)oxy)-4-(4-((4′-chloro-5,5-dimethyl-3,4,5,6-tetrahydro-[1,1′-biphenyl]-2-yl)methyl)piperazin-1-yl)-N-((2-((4-methylpiperazin-1-yl)methyl)-8-nitro-1,2,3,4-tetrahydroquinoxalin-6-yl)sulfonyl)benzamide] | 1 | 13
CC1(C)CCC(CN2CCN(c3ccc(C(=O)NS(=O)(=O)c4cc5c(c([N+](=O)[O-])c4)N[C@H](CN4CCOCC4)CN5)c(Oc4cnc5[nH]ccc5c4)c3)CC2)=C(c2ccc(Cl)cc2)C1 [Example 4-2, (S)-2-((1H-pyrrolo[2,3-b]pyridin-5-yl)oxy)-4-(4-((4′-chloro-5,5-dimethyl-3,4,5,6-tetra-hydro-[1,1′-biphenyl]-2-yl)methyl)piperazin-1-yl)-N-((2-(morpholinomethyl)-8-nitro-1,2,3,4-tetrahydroquinoxalin-6-yl)sulfonyl) benzamide] | 9 | 29
CN1CCN(C[C@H]2CNc3cc(S(=O)(=O)NC(=O)c4ccc(N5CCN(CC6=C(c7ccc(Cl)cc7)CC(C)(C)CC6)CC5)cc4Oc4cnc5[nH]ccc5c4)cc([N+](=O)[O-])c3N2)CC1 [Example 4-3, (R)-2-((1H-pyrrolo[2,3-b]pyridin-5-yl)oxy)-4-(4-((4′-chloro-5,5-dimethyl-3,4,5,6-tetra-hydro-[1,1′-biphenyl]-2-yl)methyl)piperazin-1-yl)-N-((2-((4-methylpiperazin-1-yl)methyl)-8-nitro-1,2,3,4-tetrahydroquinoxalin-6-yl)sulfonyl)benzamide] | 46 | 38
CC1(C)CCC(CN2CCN(c3ccc(C(=O)NS(=O)(=O)c4cc5c(c([N+](=O)[O-])c4)N[C@@H](CN4CCOCC4)CN5)c(Oc4cnc5[nH]ccc5c4)c3)CC2)=C(c2ccc(Cl)cc2)C1 [Example 4-4, (R)-2-((1H-pyrrolo[2,3-b]pyridin-5-yl)oxy)-4-(4-((4′-chloro-5,5-dimethyl-3,4,5,6-tetra-hydro-[1,1′-biphenyl]-2-yl)methyl)piperazin-1-yl)-N-((2-(morpholinomethyl)-8-nitro-1,2,3,4-tetrahydroquinoxalin-6-yl)sulfonyl) benzamide] | 14 | 28
